Columns and labels:
[1] = Population pharmacokinetic analysis of linagliptin plasma concentrations; format: in vivo, human (patients with T2DM)
[2] = not estimated, fixed to estimates of the previous model ref 15; cited from earlier work
[3] = single rising-dose study, healthy volunteers, up to a dose of 600 mg ref 5; cited from earlier work

CC#CCn1c(N2CCC[C@@H](N)C2)nc2c1c(=O)n(Cc1nc(C)c3ccccc3n1)c(=O)n2C [linagliptin, (R)-8-(3-Amino-piperidin-1-yl)-7-but-2-ynyl-3-methyl-1-(4-methyl-quinazolin-2-ylmethyl)-3,7-dihydro-purine-2,6-dione]
change in exposure, combination of covariate effects (largest decrease) ([1]; 5 mg, person, 117 kg, GGT 9.4 U/L, pre-dose DPP-4 activity 8,025 RFU): −26% | increase in linagliptin exposure, impact of weight ([1]; 5th percentile of weight): 5.9% | increase in linagliptin exposure with age ([1]; 73-year-old vs 42-year-old patient (95th and 5th percentile of age)): 13.8% | decrease in linagliptin exposure, impact of weight ([1]; 95th percentile of weight): 8.7% | Weight_F: percentage change in F per kg change from median weight of population ([1]; covariate effect, median weight 88 kg, final model): −0.958 | Dose_Ka: percentage change in Ka per dose unit change from the 5 mg dose group ([1]; covariate effect, final model): −6.51 | CL/F: typical clearance of the unbound concentration ([1]; final model): 258 L/h | πF: intra-individual variability in relative bioavailability ([1]; final model): 40.0 CV % | ωCL: inter-individual variability in clearance of the unbound concentration ([1]; final model): 27.5 CV % | ωF: inter-individual variability in relative bioavailability ([1]; final model): 47.4 CV % | ωKa: inter-individual variability in the absorption rate constant ([1]; final model): 76.4 CV % | ωVC: inter-individual variability in the central volume of distribution ([1]; final model): 24.4 CV % | Vd/F ([1]; human, in vivo): 715 L | Ka,1: typical absorption rate constant study 1 ([1]; powder in bottle formulation, oral): 0.933 h⁻¹ | linear decrease in bioavailability for every 1 kg increase in weight ([1]; relative bioavailability, oral): 0.96% | Ka,2: typical absorption rate constant study 2 ([1]; tablet formulation 1, oral): 0.795 h⁻¹ | Ka,3: typical absorption rate constant studies 3/4 ([1]; tablet formulation 2, oral): 0.441 h⁻¹ | VP/F: typical volume of distribution of the peripheral compartment [2]: 1,650 L | tolerability of a single dose [3]: well tolerated

Reference: article PMC4486092 (Clinical Pharmacokinetics, 2015)
